Experimental data as given in patent US20250276924A1, “CHEMICAL AND BIOLOGICAL DEGRADATION OF ETHER PER- AND POLYFLUOROALKYL SUBSTANCES” (The Regents of the University of California, priority 2024, published 2025).

Assay: Chemical treatment by UV (254 nm)/sulfite advanced reduction at pH 9.5
Assay type: physicochemical
Experimental: The chemical treatment of five non-biodegradable PFAS was conducted in 600 mL closed-system batch reactors equipped with a low-pressure mercury lamp (254 nm, 18 W) at 20° C. The reaction mixture contained 25 μM ether PFAS, 10 mM Na2SO3, and 5 mM NaHCO3 at pH 9.5 adjusted by NaOH. […]

O=C(O)C(F)(OC(F)(F)C(F)(F)C(F)(F)F)C(F)(F)F (centres unmarked) [E10, 2,3,3,3-tetrafluoro-2-(perfluoropropoxy)propanoic acid]
defluorination by chemical reductive degradation (UV 254 nm, SO3^2− 10 mM, pH 9.5, after 48 h): less than 50%

Trifluoroacetic acid [TP112]
degradation by UV/sulfite treatment (second advanced reduction treatment, result in words): quickly and completely degraded
